Where a name gives a salt, the structure may show the parent alone.

The assay addresses T1, TLR7/NFKb HEK cells (Homo sapiens, UniProt Q9NYK1).
T1 construct: expressed in transfected cells; host or cells: HEK cells (TLR7/NFKb reporter line)
T1 sequence (Q9NYK1 27-1049): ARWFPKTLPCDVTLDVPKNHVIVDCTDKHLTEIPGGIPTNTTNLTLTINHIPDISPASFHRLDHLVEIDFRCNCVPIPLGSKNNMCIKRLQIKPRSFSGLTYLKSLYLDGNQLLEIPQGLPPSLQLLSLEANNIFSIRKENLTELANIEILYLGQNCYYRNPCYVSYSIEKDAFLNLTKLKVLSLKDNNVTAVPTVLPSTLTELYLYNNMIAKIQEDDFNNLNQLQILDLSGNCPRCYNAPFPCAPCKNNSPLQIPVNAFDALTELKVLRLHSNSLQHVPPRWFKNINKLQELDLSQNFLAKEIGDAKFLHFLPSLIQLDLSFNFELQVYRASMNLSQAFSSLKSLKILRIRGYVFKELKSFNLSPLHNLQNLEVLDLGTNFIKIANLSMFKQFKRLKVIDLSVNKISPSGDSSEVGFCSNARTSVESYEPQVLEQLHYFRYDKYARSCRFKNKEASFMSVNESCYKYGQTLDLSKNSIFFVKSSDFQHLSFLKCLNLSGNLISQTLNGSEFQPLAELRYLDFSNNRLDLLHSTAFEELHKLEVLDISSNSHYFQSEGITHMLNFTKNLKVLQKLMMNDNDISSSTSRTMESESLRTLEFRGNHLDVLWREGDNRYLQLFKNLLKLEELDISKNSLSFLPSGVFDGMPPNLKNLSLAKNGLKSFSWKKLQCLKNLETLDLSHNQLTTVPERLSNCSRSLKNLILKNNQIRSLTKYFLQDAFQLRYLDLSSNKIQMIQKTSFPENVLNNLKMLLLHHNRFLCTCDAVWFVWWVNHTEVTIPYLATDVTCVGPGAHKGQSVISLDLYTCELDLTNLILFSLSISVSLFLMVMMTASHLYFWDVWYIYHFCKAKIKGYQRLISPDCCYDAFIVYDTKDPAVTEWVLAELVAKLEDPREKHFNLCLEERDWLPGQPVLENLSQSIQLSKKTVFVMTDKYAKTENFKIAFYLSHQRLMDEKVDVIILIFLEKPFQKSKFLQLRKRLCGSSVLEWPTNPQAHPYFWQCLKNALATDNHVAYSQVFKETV
Kind of assay: HEK Cell Assay (TLR7/NFKb reporter, Steady-Glo luciferase readout). Format: cell-based. To be noted: 30 min compound preincubation, then R*48 agonist for 5 hours, read-out: Potency. A digest of the protocol: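 Steady-Glo luminescence after 5 h stimulation with R*48 agonist, following 30 min compound preincubation. Assay run in HEK cells carrying a TLR7/NFKb luciferase reporter, plated at 5000 cells/well and grown 24 h at 37° C (10% CO2) before treatment.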

With `C[C@H]1C[C@@H](NC(=O)C(N)C2CC2)CN(c2ccc(C#N)c3nccnc23)C1` (stereo partly drawn) [Compound 268, 2-amino-N-[(3R,5S)-1-(8-cyanoquinoxalin-5-yl)-5-methylpiperidin-3-yl]-2-cyclopropylacetamide], the IC50 was below 1000 nM.
In the case of `C[C@H]1C[C@@H](NC(=O)CC2(C)CCN(C)CC2)CN(c2ccc(C(F)(F)F)c3ncccc23)C1` [Compound 245, 2-(1,4-dimethylpiperidin-4-yl)-N-[(3R,5S)-5-methyl-1-[8-(trifluoromethyl)quinolin-5-yl]piperidin-3-yl]acetamide] it was below 1000 nM; in that of `CCN(C)CCNC(=O)C1CCN(c2ccc(C#N)c3ncccc23)CC1` [Compound 416, 1-(8-Cyano-quinolin-5-yl)-piperidine-4-carboxylic Acid [2-(ethyl-methyl-amino)-ethyl]-amide], below 1000 nM; in that of `CC(C(=O)N[C@@H]1C[C@H](C)CN(c2ccc(C(F)F)c3nccnc23)C1)N1CC(F)(F)C1` (stereo partly drawn) [Compound 323, 2-(3,3-difluoroazetidin-1-yl)-N-[(3R,5S)-1-[8-(difluoromethyl)quinoxalin-5-yl]-5-methylpiperidin-3-yl]propanamide], 1000 to 10000 nM.
In the case of `O=C(CN1CCOCC1)NC1CN(c2ccc(C(F)(F)F)c3ncccc23)CC(F)(F)C1` (stereo not drawn) [Compound 512, N-[5,5-Difluoro-1-(8-trifluoromethyl-quinolin-5-yl)-piperidin-3-yl]-2-morpholin-4-yl-acetamide], the IC50 was 1000 to 10000 nM.
In the case of `N#Cc1ccc(N2C[C@H](N)C[C@H](F)C2)c2nccnc12` [Compound 499, 8-((3R,5S)-3-Amino-5-fluoro-piperidin-1-yl)-quinoxaline-5-carbonitrile hydrochloride] it was 1000 to 10000 nM; in that of `CCN(C)[C@H](C)C(=O)N[C@@H]1C[C@H](C)CN(c2ccnc3nccnc23)C1` [Compound 100, (2R)-2-[ethyl(methyl)amino]-N-[(3R,5S)-5-methyl-1-[pyrido[2,3-b]pyrazin-8-yl]piperidin-3-yl]propanamide], 1000 to 10000 nM.
Under `C[C@H]1C[C@@H](NC(=O)CC(C)(C)CN)CN(c2ccc(C#N)c3nccnc23)C1` [Compound 277, 4-amino-N-[(3R,5S)-1-(8-cyanoquinoxalin-5-yl)-5-methylpiperidin-3-yl]-3,3-dimethylbutanamide] stands below 1000 nM.
Under `N#Cc1ccc(N2C[C@@H](NC(=O)CC3(N)CCCCC3)C[C@@H](C(F)(F)F)C2)c2cccnc12` (racemic) [Compound 479, hydrochloride] stands below 1000 nM; under `C[C@H]1C[C@@H](NC(=O)CN2CCCN(C)CC2)CN(c2ccc(C(F)(F)F)c3nccnc23)C1` [Compound 362, 2-(4-methyl-1,4-diazepan-1-yl)-N-[(3R,5S)-5-methyl-1-[8-(trifluoromethyl)quinoxalin-5-yl]piperidin-3-yl]acetamide], below 1000 nM.
Regarding `C[C@H]1C[C@@H](NC(=O)C2CC2(F)F)CN(c2ccc(C#N)c3nccnc23)C1` (stereo partly drawn) [Compound 165, N-[(3R,5S)-1-(8-cyanoquinoxalin-5-yl)-5-methylpiperidin-3-yl]-2,2-difluorocyclopropane-1-carboxamide], the IC50 was below 1000 nM.
In the case of `C[C@H]1C[C@@H](NC(=O)CC2CCN(C)CC2)CN(c2ccc(C(F)(F)F)c3ncccc23)C1` [Compound 244, N-[(3R,5S)-5-methyl-1-[8-(trifluoromethyl)quinolin-5-yl]piperidin-3-yl]-2-(1-methylpiperidin-4-yl)acetamide] it was below 1000 nM; in that of `C[C@H]1C[C@@H](NC(=O)C2CCCN2C)CN(c2ccc(C#N)c3nccnc23)C1` (stereo partly drawn) [Compound 171, N-[(3R,5S)-1-(8-cyanoquinoxalin-5-yl)-5-methylpiperidin-3-yl]-1-methylpyrrolidine-2-carboxamide], below 1000 nM.
For the compound `C[C@H]1C[C@@H](NC2CCN(C)C2=O)CN(c2ccc(C(F)(F)F)c3nccnc23)C1` (single isomer, unassigned) [Compound 353], the IC50 was below 1000 nM.
For the compound `CN1CCC(CC(=O)NC2CN(c3ccc(C#N)c4nccnc34)CC(F)(F)C2)CC1` (racemic) [Compound 504, N-[1-(8-Cyano-quinoxalin-5-yl)-5,5-difluoro-piperidin-3-yl]-2-(1-methyl-piperidin-4-yl)-acetamide], the IC50 was below 1000 nM.
With `C[C@H]1C[C@@H](NC(=O)[C@H](N)CO)CN(c2ccnc3nccnc23)C1` [Compound 107, (2R)-2-amino-3-hydroxy-N-[(3R,5S)-5-methyl-1-[pyrido[2,3-b]pyrazin-8-yl]piperidin-3-yl]propanamide], the IC50 was above 10000 nM.
For the compound `O=C(NC1CCN(CC2CC2)C1)C1CCN(c2ccc(C(F)(F)F)c3ncccc23)CC1` (single isomer, unassigned) [Compound 445], the IC50 is below 1000 nM.
Under `C[C@H]1C[C@@H](NC(=O)CC2CCN(CC(F)F)CC2)CN(c2ccc(C(F)(F)F)c3ncccc23)C1` [Compound 246, 2-[1-(2,2-difluoroethyl)piperidin-4-yl]-N-[(3R,5S)-5-methyl-1-[8-(trifluoromethyl)quinolin-5-yl]piperidin-3-yl]acetamide] stands below 1000 nM.
In the case of `C[C@H]1C[C@@H](NC(=O)C(N)C(F)(F)F)CN(c2ccc(C(F)(F)F)c3ncccc23)C1` (single isomer, unassigned) [Compound 197] it was 1000 to 10000 nM; in that of `C[C@H]1C[C@@H](NC(=O)C2CCN(C)C2)CN(c2ccc(C#N)c3nccnc23)C1` (stereo partly drawn) [Compound 236, N-[(3R,5S)-1-(8-cyanoquinoxalin-5-yl)-5-methylpiperidin-3-yl]-1-methylpyrrolidine-3-carboxamide], below 1000 nM.
In the case of `Cc1ncc(N2C[C@@H](C)C[C@@H](NC(=O)[C@@H](N)C3CC3)C2)c2cccnc12` [Compound 562, (S)-2-Amino-2-cyclopropyl-N-[(3R,5S)-5-methyl-1-(8-methyl-[1,7]naphthyridin-5-yl)-piperidin-3-yl]-acetamide] it was below 1000 nM.
For `C[C@H]1C[C@@H](N)CN(c2ccnc3ccccc23)C1` [Compound 11, (3R,5S)-5-methyl-1-(quinolin-4-yl)piperidin-3-amine], the IC50 fell in the range of 1000 to 10000 nM.
Under `CC(C)[C@@H](N)C(=O)N[C@@H]1C[C@H](C)CN(c2ccc(C#N)c3nccnc23)C1` [Compound 102, (2R)-2-amino-N-[(3R,5S)-1-(8-cyanoquinoxalin-5-yl)-5-methylpiperidin-3-yl]-3-methylbutanamide] stands below 1000 nM.
For the compound `C[C@H]1C[C@@H](NC(=O)C2(O)CC2)CN(c2ccc(C(F)(F)F)c3ncccc23)C1` [Compound 241, 1-hydroxy-N-[(3R,5S)-5-methyl-1-[8-(trifluoromethyl)quinolin-5-yl]piperidin-3-yl]cyclopropane-1-carboxamide], the IC50 was below 1000 nM.
As for `O=C(CN1CCOCC1)N[C@H]1C[C@@H](C2CC2)CN(c2ccc(C(F)(F)F)c3nccnc23)C1` (relative stereo) [Compound 335, cis-N-[5-cyclopropyl-1-[8-(trifluoromethyl)quinoxalin-5-yl]piperidin-3-yl]-2-(morpholin-4-yl)acetamide], the IC50 is above 10000 nM.
In the case of `C[C@H]1C[C@@H](NC(=O)Cc2cn(C)cn2)CN(c2ccnc3nccnc23)C1` [Compound 133, N-[(3R,5S)-5-methyl-1-[pyrido[2,3-b]pyrazin-8-yl]piperidin-3-yl]-2-(1-methyl-1H-imidazol-4-yl)acetamide] it was above 10000 nM; in that of `COc1ccc(N2C[C@@H](C)C[C@@H](NC(=O)C(N)C(F)(F)F)C2)c2cccnc12` (single isomer, unassigned) [Compound 192], 1000 to 10000 nM; in that of `C[C@H]1C[C@@H](NC2CCN(C)C2=O)CN(c2ccc(C(F)(F)F)c3ncccc23)C1` (single isomer, unassigned) [Compound 237], below 1000 nM.
In the case of `CNCC(=O)N[C@@H]1C[C@H](C)CN(c2ccnc3nccnc23)C1` [Compound 29, N-((3R,5S)-5-methyl-1-(pyrido[2,3-b]pyrazin-8-yl)piperidin-3-yl)-2-(methylamino)acetamide] it was above 10000 nM.
For `C[C@H]1C[C@@H](N(C)C(=O)CN(C)C)CN(c2ccc(C(F)(F)F)c3ncccc23)C1` [Compound 452, 2-Dimethylamino-N-methyl-N-[(3R,5S)-5-methyl-1-(8-trifluoromethyl-quinolin-5-yl)-piperidin-3-yl]-acetamide], the IC50 is below 1000 nM.

For the origin of these results see patent US10947213B1 (Merck Patent GmbH, priority 2015, dated 2021).
